Reference: the NIST ThermoML archive (doi:10.1021/acs.jced.8b00554)

Experiment: xn = mol fraction of the nth substance listed
Settings: 363.15 K, Liquid, Vibrating tube method

CCCCCCCC [octane] + CCCO
Settings | mass density [kg/m3]
5000 kPa, x2 = 0.3158 | 656.03
5000 kPa, x2 = 0.7301 | 691.49
5010 kPa, x2 = 0.1631 | 650.29
5010 kPa, x2 = 0.8823 | 716.99
5020 kPa, x2 = 0.4411 | 663.46
6000 kPa, x2 = 0.8823 | 718.21
6010 kPa, x2 = 0.1631 | 651.6
6010 kPa, x2 = 0.2111 | 653.06
6020 kPa, x2 = 0.3158 | 657.34
6020 kPa, x2 = 0.4411 | 664.8
6020 kPa, x2 = 0.7301 | 692.76
7000 kPa, x2 = 0.1631 | 652.93
7000 kPa, x2 = 0.3158 | 658.67
7000 kPa, x2 = 0.4411 | 666.13
7010 kPa, x2 = 0.2111 | 654.35
7020 kPa, x2 = 0.7301 | 694.08
7020 kPa, x2 = 0.8823 | 719.45
8000 kPa, x2 = 0.3158 | 660
8010 kPa, x2 = 0.1631 | 654.22
8010 kPa, x2 = 0.2111 | 655.68
8010 kPa, x2 = 0.8823 | 720.66
8020 kPa, x2 = 0.4411 | 667.45
8020 kPa, x2 = 0.7301 | 695.38
9000 kPa, x2 = 0.1631 | 655.49
9000 kPa, x2 = 0.8823 | 721.91
9010 kPa, x2 = 0.3158 | 661.3
9010 kPa, x2 = 0.4411 | 668.75
9010 kPa, x2 = 0.7301 | 696.66
9020 kPa, x2 = 0.2111 | 656.97
10000 kPa, x2 = 0.1631 | 656.77
10000 kPa, x2 = 0.4411 | 670.08
10010 kPa, x2 = 0.2111 | 658.25
10010 kPa, x2 = 0.8823 | 723.12
10020 kPa, x2 = 0.3158 | 662.62
10020 kPa, x2 = 0.7301 | 697.93
11000 kPa, x2 = 0.1631 | 658.05
11000 kPa, x2 = 0.4411 | 671.35
11010 kPa, x2 = 0.2111 | 659.52
11010 kPa, x2 = 0.3158 | 663.89
11010 kPa, x2 = 0.7301 | 699.17
11020 kPa, x2 = 0.8823 | 724.31
12000 kPa, x2 = 0.1631 | 659.27
12000 kPa, x2 = 0.8823 | 725.46
12010 kPa, x2 = 0.2111 | 660.8
12010 kPa, x2 = 0.3158 | 665.14
12020 kPa, x2 = 0.4411 | 672.6
12020 kPa, x2 = 0.7301 | 700.4
13000 kPa, x2 = 0.3158 | 666.41
13000 kPa, x2 = 0.4411 | 673.84
13000 kPa, x2 = 0.8823 | 726.58
13010 kPa, x2 = 0.1631 | 660.51
13010 kPa, x2 = 0.2111 | 662.01
13010 kPa, x2 = 0.7301 | 701.64
14010 kPa, x2 = 0.1631 | 661.7
14010 kPa, x2 = 0.2111 | 663.23
14010 kPa, x2 = 0.3158 | 667.62
14010 kPa, x2 = 0.7301 | 702.82
14020 kPa, x2 = 0.4411 | 675.08
14020 kPa, x2 = 0.8823 | 727.76
15000 kPa, x2 = 0.8823 | 728.85
15010 kPa, x2 = 0.1631 | 662.89
15010 kPa, x2 = 0.4411 | 676.25
15010 kPa, x2 = 0.7301 | 704
15020 kPa, x2 = 0.2111 | 664.4
15020 kPa, x2 = 0.3158 | 668.79
16000 kPa, x2 = 0.3158 | 669.98
16000 kPa, x2 = 0.8823 | 729.97
16010 kPa, x2 = 0.2111 | 665.57
16010 kPa, x2 = 0.7301 | 705.17
16020 kPa, x2 = 0.1631 | 664
16020 kPa, x2 = 0.4411 | 677.45
17000 kPa, x2 = 0.7301 | 706.32
17000 kPa, x2 = 0.8823 | 731.02
17010 kPa, x2 = 0.1631 | 665.15
17010 kPa, x2 = 0.3158 | 671.18
17010 kPa, x2 = 0.4411 | 678.56
17020 kPa, x2 = 0.2111 | 666.77
18000 kPa, x2 = 0.8823 | 732.11
18010 kPa, x2 = 0.3158 | 672.26
18010 kPa, x2 = 0.4411 | 679.72
18020 kPa, x2 = 0.1631 | 666.27
18020 kPa, x2 = 0.2111 | 667.86
18020 kPa, x2 = 0.7301 | 707.41
19000 kPa, x2 = 0.1631 | 667.34
19000 kPa, x2 = 0.4411 | 680.79
19000 kPa, x2 = 0.8823 | 733.13
19010 kPa, x2 = 0.2111 | 668.92
19010 kPa, x2 = 0.3158 | 673.36
19010 kPa, x2 = 0.7301 | 708.47
20010 kPa, x2 = 0.1631 | 668.36
20010 kPa, x2 = 0.2111 | 669.97
20010 kPa, x2 = 0.3158 | 674.4
20020 kPa, x2 = 0.4411 | 681.9
20020 kPa, x2 = 0.7301 | 709.58
20020 kPa, x2 = 0.8823 | 734.15
